Experimental data: PMC9530166, “Allosteric regulation of glycogen breakdown by the second messenger cyclic di-GMP” (Nature Communications, 2022)

Legend:
His6-GlgX (Vnz29170) = experiment: nanoDSF label-free thermal shift assay, wild-type GlgX; type: binding, Streptomyces venezuelae; conditions: 10 µM GlgX, 1 mM ligand; without ligand 51.5 °C
Procedure: (§1) Fig. 1 GlgX binds c-di-GMP. a Quantification of c-di-GMP in S. venezuelae cell extracts using LC-MS/MS. Cells were harvested during late vegetative growth (8–10 h), transition to sporulation (12–16 h), and sporulation (18–20 h). Data are presented as the mean of biological replicates ±SD (n = 3). […] Source data are provided in the Source data file. c [^32P]-c-di-GMP binds to GlgX in DRaCALA assay indicated by dark spots in the center of the nitrocellulose membrane. For competition, excess (100 µM) of unlabeled c-di-GMP, c-di-AMP, or GTP was added to the reaction containing [^32P]-c-di-GMP and GlgX.
To determine if the interaction between Vnz29170 (herein called GlgX) and c-di-GMP is direct, we purified an N-terminally His6-tagged GlgX protein and performed nano differential scanning fluorimetry (nanoDSF) thermal shift assays. […]
For label-free thermal shift assay experiments, 10 μM purified protein in 25 mM Tris pH 8, 150 mM NaCl, 2.5% (v/v) glycerol, and 5 mM MgCl2 was incubated without or with (1 mM) of nonlabeled c-di-GMP or c-di-AMP, respectively, at rt for 10 min. Reactions were subsequently analyzed in a Tycho NT.6 (NanoTemper Technologies) device with a 30 K/min thermal ramp and the internal fluorescence at 330 and 350 nm was recorded. […]

His6-GlgX = experiment: DRaCALA with [32P]-c-di-GMP, wild-type GlgX; type: binding, Streptomyces venezuelae
Procedure: as §1
To determine if the interaction between Vnz29170 (herein called GlgX) and c-di-GMP is direct, we purified an N-terminally His6-tagged GlgX protein and performed nano differential scanning fluorimetry (nanoDSF) thermal shift assays. […] In addition, we used differential radial capillary action of ligand assays (DRaCALA), which allows visualization of protein-bound radiolabeled ligand as a central spot after the application of the protein-ligand mix onto nitrocellulose. Using DRaCALA we confirmed that GlgX from S. venezuelae binds ^32P-labeled c-di-GMP.
For DRaCALA assays, purified His6-GlgX (15 μg) was mixed with 0.5 μl undiluted [^32P]-c-di-GMP (42 nM) (Hartmann Analytic GmbH, Braunschweig) in binding buffer (25 mM Tris pH 8; 150 mM NaCl; 2.5% (v/v) glycerol; 5 mM MgCl2) and the reaction was incubated at rt for 5 min. For competition assays, 100 μM nonlabeled nucleotides were added to the samples and incubated at rt for 5 min prior to the addition of [^32P]-c-di-GMP. Reactions (10 μl) were spotted on the same nitrocellulose membrane (Roth), air dried for 10 min and analyzed via phosphorimaging.

His6-Vnz25270 = experiment: BCA reducing-end enzyme assay, Vnz25270; type: biochemical, Streptomyces venezuelae; conditions: 50 µM c-di-GMP, 0.05% glycogen from rabbit, 1 µM enzyme
Procedure: Fig. 2 c-di-GMP stimulates glycogen breakdown activity of GlgX in vitro. a Bicinchoninic acid (BCA) in vitro enzyme assay. The purple copper bicinchoninate complex indicating GlgX-mediated generation of reducing ends in glycogen was quantified by photometric measurements at 562 nm. A562 values were converted into reducing ends [µM glucose equivalents] based on D-glucose as a standard. Reactions contained 0.05% (w/v) glycogen from rabbit, 1 µM GlgX and increasing concentrations of c-di-GMP (0–100 µM). Source data are provided as a Source data file. b BCA assay containing 0.05% of either glycogen from rabbit, pullulan, amylopectin from maize or amylose from potato as substrates. Where appropriate, 1 µM GlgX or 50 µM c-di-GMP were added to the reaction samples. Source data are provided as a Source data file. c BCA assay as in a with or without c-di-GMP (50 µM), 0.05% glycogen from rabbit (S) and 1 µM Vnz25270, GlgX, the active site mutants GlgXD342A, GlgXE378A, GlgXD342A+E378A, or the c-di-GMP-binding mutant variant GlgXDETR49-52 as indicated. […]
Hydrolysis of carbohydrates was assessed in vitro by measuring the accumulation of reducing sugar ends using the BCA assay[42] and D-glucose as a standard for calibration (Supplementary Fig. 11). […] 125 μl sample aliquots were transferred in duplicates to a 96 well plate and the absorbance at 562 nm was measured using a plate reader.

[RsiG + WhiG] = molecular target: [RsiG + WhiG]; set-up: method as in PMID 25171413, PMID 31810759; conditions: cited from earlier work

With `Nc1nc2c(ncn2[C@@H]2O[C@@H]3CO[P@](=O)(O)O[C@H]4[C@@H](O)[C@H](n5cnc6c(=O)[nH]c(N)nc65)O[C@@H]4CO[P@](=O)(O)O[C@H]3[C@H]2O)c(=O)[nH]1` [c-di-GMP, bis-(3′−5′)-cyclic diguanosine monophosphate] as the compound, how does the “melting point of His6-GlgX in the presence of ligand” value (His6-GlgX (Vnz29170)) read?
Its value is 55.8 °C.

And the “binding of 32P-labeled c-di-GMP in DRaCALA” value (His6-GlgX; 15 µg His6-GlgX, [32P]-c-di-GMP)?
Its value is “binds”.

And the “competition with 32P-c-di-GMP for binding to GlgX” value (His6-GlgX; excess (100 µM) unlabeled nucleotide)?
Its value is “competed”.

And the “effect of c-di-GMP on hydrolytic activity” value (His6-Vnz25270)?
The value was “remained at basal levels”.

What about the Kd ([RsiG + WhiG]) of the same compound?
Its Kd is 390 ± 50 nM.
